One assay has as its system E. coli strain ML35. As to conditions: at 30 μM.
In a further assay the target is T1, ferroportin (FPN1) (Mus musculus, UniProt Q9JHI9).
T1 construct: endogenous in cells; host or cells: RAW 264.7 murine macrophages
T1 sequence (Q9JHI9 1-570): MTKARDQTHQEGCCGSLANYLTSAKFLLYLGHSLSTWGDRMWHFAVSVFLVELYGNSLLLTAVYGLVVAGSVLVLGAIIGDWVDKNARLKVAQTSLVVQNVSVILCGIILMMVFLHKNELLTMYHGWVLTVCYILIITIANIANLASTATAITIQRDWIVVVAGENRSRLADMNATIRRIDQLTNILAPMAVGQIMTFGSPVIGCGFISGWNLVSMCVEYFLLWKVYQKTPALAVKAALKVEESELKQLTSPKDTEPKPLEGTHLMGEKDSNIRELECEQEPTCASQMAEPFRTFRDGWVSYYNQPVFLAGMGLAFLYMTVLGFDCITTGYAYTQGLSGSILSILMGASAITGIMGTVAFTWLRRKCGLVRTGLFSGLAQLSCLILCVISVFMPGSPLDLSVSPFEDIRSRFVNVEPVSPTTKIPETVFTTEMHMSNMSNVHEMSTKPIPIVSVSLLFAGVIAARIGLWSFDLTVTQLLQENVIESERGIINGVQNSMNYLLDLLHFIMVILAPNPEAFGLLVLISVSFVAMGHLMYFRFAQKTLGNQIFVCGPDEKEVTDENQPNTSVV
Nature of the assay: Western blot of ferroportin expression in macrophages. Format: cell-based, murine. The method, then:
A, RAW 264.7 macrophages were treated with 11 μM and 10 μM of synthetic hepcidin-25 (having the sequence of SEQ ID NO. 2) and Hep-25His (having the sequence of SEQ ID NO. 6) for 4 h at 37° C. or with PBS as negative control. Cell lysates were subjected to 8% SDS PAGE and Western Blot with antibodies against TfR1, Ferroportin and actin as loading control. B, The signal density of ferroportin, TfR1 and actin protein bands from two independent experiments were quantified by densitometry and their intensity relative to actin was calculated. […] Hep25-His, negative peptide and PBS was incubated with Raw 264.7 macrophages, followed by cross-linking with DSS. Cell lysates were incubated with Ni2-NTA and eluates were analyzed by Western blot using anti-FPN1 Ab. […] HEK293-Fpn cells were induced with ponasterone for 24 h and then treated with Hep25-His or synthetic hepcidin 25 (s. Hep25) for 3 h. Fluorescence was visualized with a Leica TCS confocal microscope.
Western blotting—1×10^6 cells (RAW 264.7, THP-1 or J774) were plated in […] plates and after 12-20 h cells were treated with hepcidins in serum-free DMEM for 4 h, at 37° C. Afterwards, cells were re-suspended in lysis buffer (1% Triton, 25 mM Hepes pH 7.4, 150 mM NaCl, 10% Glycerol, 5 mM EDTA, 0.5 mM PMSF, protein inhibitors (Roche, Mannheim, Germany) and quantified by Bradford assay (Biorad, Hercules, Calif.). 30 μg of cell lysate was analyzed on 8% SDS-PAGE. Proteins were transferred to Hybond C nitrocellulose membrane (Amersham Biosciences, Piscataway, N.J.) and the membranes were incubated with the primary antibodies rabbit anti-ferroportin (Alpha Diagnostics, San Antonio, Tex.), mouse anti-TfR1 (Zymed, Invitrogen, Carlsbad, Calif.) and mouse anti-β actin (Santa Cruz Biotech, Santa Cruz, Calif.), in a dilution of 1:1000, overnight at 4° C. After washing, the membranes were incubated with anti-rabbit and anti-mouse secondary antibodies conjugated with HRP, in a dilution of 1:5000 (DakoCytomation, Carpinteria, Calif.), for 1 h at room temperature. Specific signal was detected with a chemiluminescence assay kit (ECL, Amersham Biosciences, Piscataway, N.J.). The bands were quantified by densitometry using the Quantity-One (Biorad, Hercules, Calif.) software. Data are shown as means±SD. Statistical analysis was performed by student t-Test.

A further assay relates to RAW 264.7 macrophages. Description: Labile Iron Pool (LIP) calcein assay. The class given is cell-based, murine. The following applies: Hep-25His-treated RAW 264.7 macrophages. The method, then: FIG. 6. Recombinant tagged hepcidins increase the Labile Iron Pool in RAW 264.7 macrophages. RAW 264.7 macrophages were treated with 10 μM Hep-25His having the sequence of SEQ ID NO. 6, Hep-25MycHis having the sequence of SEQ ID NO. 8, Hep-20MycHis having the sequence of SEQ ID NO. 7 and negative peptide having the sequence of SEQ ID NO. 9 for 4 h at 37° C. PBS was used as negative and FAC at 30 μg/ml as positive control. Relative alterations of the LIP were monitored with calcein upon addition of isonicotinoyl-hydraxone salicylaldehyde. Data are expressed as mean±S.D. of two independent experiments performed in triplicates relative to control. **p<0.001, *p<0.05. Statistical analysis was performed with t-Test.
LIP assay—The fluorescent metalosensor calcein (Molecular Probes, Eugene, Oreg.) was used for the measurement of alterations in the levels of the LIP (Labile Iron Pool) (Murphy, A. T., Witcher, D. R., Luan, P., and Wroblewski, V. J. (2007) Blood 110, 1048-54). 1×10^6 RAW 264.7 macrophages were plated in 6-well plates. […] Fluorescence was measured with the Perkin Elmer LS55 fluorescent plate reader (Perkin Elmer LifeSciences, Boston Mass.) (488 nm excitation, 517 nm emission). […] Relative changes were expressed as percentage of the control. […]

Description for E. coli strain ML35: Antimicrobial activity of recombinant tagged hepcidins. E. coli strain ML35 was subjected to CFU assay in order to determine the antimicrobial activity of synthetic hepcidin 25 (s. Hep25) having the sequence os SEQ ID NO. 2, Hep-25His having the sequence of SEQ ID NO. 6, Hep-25MycHis having the sequence of SEQ ID NO. 8, Hep-20MycHis having the sequence of SEQ ID NO. 7 and negative peptide having the sequence SEQ ID NO. 9 at the concentrations indicated for 2 h at 37° C. Sodium phosphate buffer was used as negative control.
Antimicrobial assay—All purified recombinant hepcidins were tested for antibacterial activity against E. coli ML35 and BL21(DE) is a CFU assay (Porter E. M., van Dam E., Valore E. V., Ganz T., Broad-spectrum antimicrobial activity of human intestinal defensin 5, Infect. Immun. 65 (1997) 2396-2401.). Bacterial cell cultures were grown to OD600=0.2 (5×10^7 cfu/ml) and resuspended to a final concentration of 10^6 cfu/ml in 20mM sodium phosphate buffer, pH7.4. Various concentrations of peptides were added to a final volume of 100 μl and after incubation for 2 h at 37° C., surviving cells were plated in triplicates to LB/agar plates.
Antimicrobial activity of recombinant hepcidins—The colony forming unit assay (E. M. Porter, E. van Dam, E. V. Valore, T. Ganz, Broad-spectrum antimicrobial activity of human intestinal defensin 5, Infect. Immun. 65 (1997) 2396-2401) was used to determine the antimicrobial activity of the purified recombinant hepcidin forms against the E. coli strain, ML35. […] Surviving microbes were counted following incubation with various concentrations of recombinant hepcidin preparations, synthetic hepcidin or negative peptide for 2 h at 37° C.

As for hepcidin-25His [Hep-25His], the “reduction of the number of surviving bacteria” value in the assay on E. coli strain ML35 worked out at 1000 fold. For the same substance, the “reduction of FPN1 in comparison to untreated cells” value on ferroportin (FPN1) (RAW 264.7, 10 μM, 4 h at 37° C.) is 48±3%. Also, the “decrease in ferroportin levels” value at ferroportin (FPN1) (RAW 264.7 macrophages) is reported as roughly 50%. The “effect of higher concentrations on FPN1 and TfR1” value on ferroportin (FPN1) (concentrations higher than 10 μM, data not shown) is “did not have a stronger effect”. Further, in the assay on RAW 264.7 macrophages, the “retention of iron, LIP levels” value is reported as “increase in LIP levels”.

(Values after patent publication US8614068B2, “Process for producing hepcidin” (Hellenic Pasteur Institute, priority 2007, dated 2013).)
